Data on four molecules can be found in patent EP2246337A1, “Use of isoxazole derivatives as cyclooxygenase inhibitors” (Universita' degli Studi di Bari, priority 2004, dated 2005).

The target in one assay is T1, monocyte COX-2 (Homo sapiens, UniProt P35354).
T1 construct: isolated peripheral venous blood samples containing 10 IU of sodium heparin were incubated in the laboratory in the presence of LPS; endogenous in cells; host or cells: monocytes in LPS-stimulated heparinised human whole blood
T1 sequence (P35354 18-604): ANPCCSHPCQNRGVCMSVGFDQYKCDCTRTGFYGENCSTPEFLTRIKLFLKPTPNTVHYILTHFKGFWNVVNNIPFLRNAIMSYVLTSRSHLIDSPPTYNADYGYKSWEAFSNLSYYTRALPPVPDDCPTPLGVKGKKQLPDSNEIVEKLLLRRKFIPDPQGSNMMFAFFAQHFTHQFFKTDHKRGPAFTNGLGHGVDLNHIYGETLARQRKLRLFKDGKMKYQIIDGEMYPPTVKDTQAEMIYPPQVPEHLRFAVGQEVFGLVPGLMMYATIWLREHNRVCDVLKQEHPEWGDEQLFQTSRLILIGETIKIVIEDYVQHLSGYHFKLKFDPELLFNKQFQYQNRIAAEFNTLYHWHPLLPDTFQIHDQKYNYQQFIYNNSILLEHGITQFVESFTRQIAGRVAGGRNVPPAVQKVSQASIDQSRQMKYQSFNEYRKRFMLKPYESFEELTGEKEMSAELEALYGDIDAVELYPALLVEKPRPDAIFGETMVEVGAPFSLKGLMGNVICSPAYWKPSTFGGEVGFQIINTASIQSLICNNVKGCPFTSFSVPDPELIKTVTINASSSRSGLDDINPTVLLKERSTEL
Put plainly: COX-2 assay in LPS-stimulated isolated human whole blood (plasma PGE2). Format: cell-based. Conditions: for IC50: heparinised isolated human whole blood, LPS 10 micrograms/ml, 24 hours, PGE2, means of at least two experiments.

The next assay addresses T2, platelet COX-1 (Homo sapiens, UniProt P23219).
T2 construct: 1 ml aliquots of isolated whole blood were immediately transferred into glass test tubes and kept at a temperature of 37°C; endogenous in cells; host or cells: platelets in human whole blood (healthy volunteers / study subjects)
The assay can be described thus: COX-1 assay in isolated human whole blood allowed to clot (serum TXB2). In kind it is cell-based. Conditions: for IC50: isolated human whole blood clotting 1 hour at 37°C, TXB2, means of at least two experiments.

Assay [1] deals with biosynthesis of prostacyclin. Put plainly: Urinary excretion of 2,3-dinor-6-keto-PGF1α (index of systemic prostacyclin biosynthesis in vivo) after rofecoxib. Also on record: species or system human. Conditions: for percent change from pretreatment at 25 mg: Homo sapiens, 120 h. The source says: (§1) The collection of overnight urine samples was obtained to assess the urinary excretion of 11-dehydro-thromboxane B2 and of 2,3-dinor-6-keto-PGF1α before treatment with the drug and after the last dose of rofecoxib.
(§2) Biochim Biophys Acta 1987;918:293-7. […] J Pharmacol Exp Ther 1995;275:94-100).

Assay [2] concerns the target T3, COX-2 monocyte activity (Homo sapiens, UniProt P35354). Conditions: rofecoxib 25 mg per day for 5 consecutive days, median (range).
Experimental: (§3) Subjects with disturbances of a haemorrhagic nature, allergy to aspirin or to other non-steroidal anti-inflammatory drugs (NSAID) or with a history of gastrointestinal disorders were excluded from the study. The subjects refrained from using aspirin or other non-steroidal anti-inflammatory drugs (NSAID) for at least two weeks prior to the study. The blood samples were taken to determine COX-1 platelet activity and COX-2 monocyte activity before treatment with the drug and 12 hours after the last administration (at 8 a.m. on the sixth day of the study).
(§4) The effects of Rofecoxib on COX-1 platelet activity were assessed (assessing the production of serum TXB2 as described in Patrono et al., Thromb Res 1980;17:317-27) and on COX-2 monocyte activity (measuring the production of PGE2 in whole blood stimulated with LPS, as described in Patrignani et al., J Pharmacol Exp Ther 1994;271:1705-12).
For assay [3], the target named is T3, COX-2 monocyte activity. The assay can be described thus: in vivo.
Experimental: as §3, §4
The subject of assay [4] is biosynthesis of Thromboxane A2. Put plainly: Urinary excretion of 11-dehydro-thromboxane B2 (index of systemic thromboxane A2 biosynthesis in vivo) after rofecoxib. On the set-up: species or system human. Conditions: median (range); for 11-dehydro-thromboxane B2: rofecoxib 25 mg per day for 5 consecutive days, overnight urine; for urinary excretion of 11-dehydro-TXB2, % of pre-drug values: 25 mg per day for 5 days.
Text: as §1, §2

The target in the next assay is T4, COX-1 platelet activity (Homo sapiens, UniProt P23219).
T4 construct: 1 ml aliquots of isolated whole blood were immediately transferred into glass test tubes and kept at a temperature of 37°C; endogenous in cells; host or cells: platelets in human whole blood (healthy volunteers / study subjects)
The assay can be described thus: Ex vivo platelet COX-1 activity (serum TXB2) in subjects treated with rofecoxib. Conditions: median (range); for Serum Thromboxane B2: rofecoxib 25 mg per day for 5 consecutive days; for COX-1 platelet activity, % of variation vs pretreatment values: 25 mg per day for 5 consecutive days.

Where two headings read alike, the source gives them in different places. Marks after values point to notes of the source that are not given here. Where only a bound is given, the exact number is not on record here.

T2 sequence (P23219 24-599): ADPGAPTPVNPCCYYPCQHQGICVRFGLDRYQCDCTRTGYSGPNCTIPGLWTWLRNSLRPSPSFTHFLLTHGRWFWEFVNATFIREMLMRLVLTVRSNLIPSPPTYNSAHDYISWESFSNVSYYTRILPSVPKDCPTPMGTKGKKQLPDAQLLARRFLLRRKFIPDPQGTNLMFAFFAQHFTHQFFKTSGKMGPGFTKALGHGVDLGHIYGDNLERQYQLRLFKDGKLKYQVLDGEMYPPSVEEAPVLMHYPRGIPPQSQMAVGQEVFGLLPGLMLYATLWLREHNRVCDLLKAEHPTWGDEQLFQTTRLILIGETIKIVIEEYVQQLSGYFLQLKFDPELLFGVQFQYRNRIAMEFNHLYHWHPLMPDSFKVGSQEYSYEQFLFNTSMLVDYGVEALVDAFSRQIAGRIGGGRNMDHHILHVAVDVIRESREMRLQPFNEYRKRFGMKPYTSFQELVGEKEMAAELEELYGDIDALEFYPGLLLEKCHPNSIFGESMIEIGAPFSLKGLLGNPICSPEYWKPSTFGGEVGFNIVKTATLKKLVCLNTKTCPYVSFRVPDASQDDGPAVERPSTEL
T4 sequence (P23219 24-599): as above
Experimental for COX-1 platelet activity: as §3, §4

Turning to `Cc1onc(-c2ccc(Cl)o2)c1-c1ccccc1` [2c (P6), 3-(5-Chloro-2-furyl)-4-phenyl-5-methylisoxazole], on monocyte COX-2 (at concentrations giving virtually complete suppression of platelet COX-1 activity), the “effect on monocyte COX-2 activity” value is “do not affect monocyte COX-2 activity”. On platelet COX-1, the “COX-1 inhibition (result in words)” value was “excellent COX-1 inhibitors” and it took 500 nM to reach half-maximal inhibition (IC50). Besides, the “suppression of platelet COX-1 activity” value on platelet COX-1 (at concentrations that do not affect monocyte COX-2 activity, concentration-response curves) is listed as over 90%.

Take `CS(=O)(=O)c1ccc(C2=C(c3ccccc3)C(=O)OC2)cc1` [Rofecoxib]: the “2,3 dinor-6 keto-prostaglandin F1α” value in assay [1] ("Wild-type" TLR4 subjects, rofecoxib 25 mg per day for 5 consecutive days, overnight urine, median (range)) was 56.5(38-84)^* pg/mg creatinine. Also, in assay [1] (Carriers of TLR4 Polymorphisms, rofecoxib 25 mg per day for 5 consecutive days, overnight urine, median (range)), the “2,3 dinor-6-keto-prostaglandin F1α” value was 50 (28-93)^* pg/mg creatinine. Further, the percent change from pretreatment at 25 mg is -61% in assay [1] (read-out: inhibition of the urinary excretion of 2,3-dinor-6-keto PGF1α, "wild-type" subjects (second value of 'respectively'), 25 mg per day for 5 days, median (range)) and -64% in assay [1] (read-out: inhibition of the urinary excretion of 2,3-dinor-6-keto PGF1α, carriers of TLR4 polymorphisms (first value of 'respectively'), 25 mg per day for 5 days, median (range)). In assay [1] (similar in the two groups of patients (carriers of TLR4 polymorphisms and wild-type)), the inhibition of prostacyclin result is given as “about 60%”. The “Prostaglandin E2 induced by lipopolysaccharide” value on COX-2 monocyte activity [2] ("Wild-type" TLR4 subjects) was 2.3 (0.3-4.2) ^** ng/ml; at COX-2 monocyte activity [2] (Carriers of TLR4 Polymorphisms), 5.3 (1.9-11)^** ng/ml. In addition, the inhibition at 25 mg on COX-2 monocyte activity [3] (read-out: monocyte COX-2 activity ex vivo, % inhibition, carriers of TLR4 polymorphism, 25 mg per day for 5 consecutive days, median (range)) is -94%; at COX-2 monocyte activity [3] (read-out: monocyte COX-2 activity ex vivo, % inhibition, non carriers of TLR4 polymorphism, 25 mg per day for 5 consecutive days, median (range)), -85%. For the same molecule, the “11-dehydro-thromboxane B2” value in assay [4] ("Wild-type" TLR4 subjects) is 345 (155-595.6) pg/mg creatinine; in assay [4] (Carriers of TLR4 Polymorphisms) it was 329 (158-587)^* pg/mg creatinine. The “urinary excretion of 11-dehydro-TXB2, % of pre-drug values” in assay [4] ("wild-type" subjects) was 71 (67-84) %; in assay [4] (carriers of TLR4 polymorphisms), 174 (136-354) %. Also, the entries for the “Serum Thromboxane B2” value at COX-1 platelet activity ("Wild-type" TLR4 subjects) and at COX-1 platelet activity (Carriers of TLR4 Polymorphisms) were 233.5 (178-391) ng/ml and 225 (94-728) ng/ml, respectively. The “COX-1 platelet activity, % of variation vs pretreatment values” at COX-1 platelet activity (carriers of TLR4 polymorphism) is listed as -11(from 0 to -57) %; on COX-1 platelet activity (non carriers of TLR4 polymorphism), -10(from 0 to -10) %.

For the molecule `Cc1onc(-c2ccccc2)c1-c1ccccc1` [2a (P10), 3,4-Diphenyl-5-methylisoxazole], the half-maximal inhibitory concentration (IC50) on monocyte COX-2 came out at 2490 nM; on platelet COX-1, 90 nM. Also, the “COX-1 inhibition (result in words)” value on platelet COX-1 is reported as “excellent COX-1 inhibitors”.

In the case of `CCc1onc(-c2ccccc2)c1-c1ccccc1` [2g (P9), 3,4-Diphenyl-5-ethylisoxazole], at monocyte COX-2, the half-maximal inhibitory concentration (IC50) was 1490 nM. At platelet COX-1, the “COX-1 inhibition (result in words)” value is reported as “excellent COX-1 inhibitors” and the half-inhibitory concentration (IC50) was found to be 50 nM.

As usually defined, the IC50 is the concentration that gives 50% inhibition. The term inhibition denotes the relative decrease from the control value, in per cent.
